According to patent publication US5134168A, “Phenoxy and phenylthio, amino substituted benzocycloalkane derivatives in the treatment and prevention of drug-resistant protozoal infections” (Merrell Dow Pharmaceuticals Inc., priority 1991, dated 1992):

Tests used:
P. falciparum (FCR3) = test: Enhancement of chloroquine potency: [3H]-hypoxanthine incorporation into chloroquine-resistant P. falciparum (FCR3) in vitro; assay type: cell-based, Plasmodium falciparum; conditions: chloroquine IC50 with compound at 200 ng/ml as percent of chloroquine-alone IC50
[1] = tested on: chloroquine-resistant P. falciparum (FCR3); test: Isobologram analysis of synergism with chloroquine, hypoxanthine incorporation (FIG. 1); assay type: cell-based, Plasmodium falciparum; conditions: IC50 for hypoxanthine incorporation
Description: FIG. 1 illustrates the synergism of 1-(3,4-dichloro-phenoxy)-2,3-dihydro-N,N-dimethyl-1H-Indene-2-methanamine and chloroquine against chloroquine-resistant P. falciparum (FCR3). Isobologram analysis was carried out according to the method of Martin, et al., (1987) Science 235, 899-901 and Berenbaum, (1978) Journal of Infectious Diseases 137, 122-130. […] The X-axis is the IC50 concentration of drug which inhibits hypoxanthine incorporation by 50%) of chloroquine in the absence or presence of 1-(3,4-dichlorophenoxy)-2,3-dihydro-N,N-dimethyl-1H-Indene-2-methanamine while the Y-axis is the IC50 for 1-(3,4-dichlorophenoxy)-2,3-dihydro-N,N-dimethyl-1H-Indene-2-methanamine in the absence or presence of chloroquine.
P. falciparum (clone D6, chloroquine-sensitive; strain FCR3, chloroquine-resistant; and clone W2, multidrug-resistant) was grown in vitro by the method of Trager and Jensen, (1976) Science 193, 673-675.

P. falciparum = conditions: recently reported; by interfering with riboflavin metabolism; cited from earlier work

| SMILES | Percent of IC50 of Chloroquine Alone (P. falciparum (FCR3)) | also measured |
| --- | --- | --- |
| CNC[C@H]1Cc2ccccc2[C@H]1Oc1ccccc1OC (relative stereo) [1 0 1 O--OCH3 --CH2 -- CH3 H O --, cis-2,3-dihydro-1-(2-methoxyphenoxy)-N-methyl-1H-indene-2-methanamine] | 13% | – |
| CN(C)CC1Cc2ccccc2C1Oc1ccc(Cl)c(Cl)c1 (stereo not drawn) [1-(3,4-dichlorophenoxy)-2,3-dihydro-N,N-dimethyl-1H-Indene-2-methanamine] | – | synergism of the combination with chloroquine [1]: highly synergistic |
| CN(C)C[C@H]1Cc2ccccc2[C@H]1Sc1ccccc1.O=C(O)C(=O)O (relative stereo) [1 0 0 -- --CH2 -- CH3 CH3 S cis, cis-2,3-dihydro-N,N-dimethyl-1-(phenylthio)-1H-indene-2-methanamine, ethanedioate] | 14% | – |
| CN(C)C[C@@H]1Cc2ccccc2[C@@H]1Oc1ccc(Br)cc1 (relative stereo) [1 0 1 p-Br --CH2 -- CH3 CH3 O cis, CIS-1-(4-romophenoxy)-2,3-dihydro-N,N-dimethyl-1H-indene-2-methanamine ethanedioate] | 68% | – |
| CN(C)CCC=C1c2ccccc2CCc2ccccc21 [amitryptyline] | – | P. falciparum growth (P. falciparum): suppress P. falciparum growth |
| CNC[C@@H]1Cc2ccccc2[C@@H]1Oc1ccccc1C(F)(F)F (relative stereo) [1 0 1 O--CF3 --CH2 -- CH3 H O cis, CIS-2,3-dihydro-N-methyl-1-(2-trifluoromethylphenoxy)-H-indene-2-methanamine ethanedioate (1:1)] | 22% | – |
| CN(C)CC1Cc2ccccc2C1Oc1ccccc1 (stereo not drawn) [1 0 0 -- --CH2 -- CH3 CH3 O --, 2,3-dihydro-N,N-dimethyl-1-phenoxy-1H-indene-2-methanamine] | 10% | – |
| CN(C)CCCN1c2ccccc2CCc2ccccc21 [imipramine] | – | P. falciparum growth (P. falciparum): suppress P. falciparum growth |

Second part, led by results:

| Percent of IC50 of Chloroquine Alone (P. falciparum (FCR3)) | SMILES | also measured |
| --- | --- | --- |
| 43% | CN(C)C[C@H]1Cc2ccccc2[C@@H]1Oc1ccc(Cl)c(Cl)c1 (relative stereo) [1 0 2 m,p-(Cl)2 --CH2 -- CH3 CH3 O trans] | – |
| 55% | CN(C)C[C@H]1Cc2ccccc2[C@H]1Oc1ccc(C(F)(F)F)cc1.Cl (relative stereo) [1 0 1 p-CF3 --CH2 -- CH3 CH3 O cis, cis-2,3-dihydro-N,N-dimethyl-1-[4-(trifluoromethyl)-phenoxy]-1H-indene-2-methanamine hydrochloride] | – |
| 25% | CN(C)C[C@H]1Cc2ccccc2[C@H]1Oc1ccc2c(c1)OCO2.O=C(O)C(=O)O (relative stereo) [1 0 2 --OCH2 O-- --CH2 -- CH3 CH3 O cis, CIS 1-(1,3-benzodioxol-5-yloxy)-2,3-dihydro-N,N-dimethyl-1H-indene-2-methanamine ethanedioate (1:1)] | – |
| 75% | CN(C)C[C@@H]1Cc2ccccc2[C@H]1Oc1ccc2c(c1)OCO2.O=C(O)C(=O)O (relative stereo) [TRANS 1-(1,3-benzodioxol-5-yloxy)-2,3-dihydro-N,N-dimethyl-1H-indene-2-methanamine ethanedioate (1:1)] | – |
